According to patent publication US20090012088A1 (priority 2005, published 2009):
“Also recorded” adds a separate entry of the source. Where two headings read alike, the source gives them in different places.

Columns and labels:
[1] = system: primary dopaminergic neurons from the midbrain of embryonic rats; assay: Protection of primary dopaminergic neurons from rotenone (TH/MAP2 immunocytochemistry); format: cell-based, rat; conditions: 100 nM rotenone, 48 h, % TH+ of MAP2+ cells
Procedure: With in vitro PARG inhibition, cell permeability, a structure-activity-relationship, and protection in cell culture models established, the protective properties of PIP-1 are evaluated in cultures of primary dopaminergic neurons taken from the midbrain of embryonic rats. After isolation, these neurons are treated with 100 nM rotenone and a range of PIP-1 concentrations. Cells are stained with antibodies to MAP2 and tyrosine hydroxylase (TH) to determine the proportion of dopaminergic neurons remaining.
Preparation of Primary Mesencephalic Cultures: Primary Midbrain Cultures are prepared using a modified version of a previously described protocol^2. All of the procedures involving animal handling are reviewed and approved by the Purdue Animal Care and Use Committee. […]
Treatment of primary cultures with rotenone and PIP-1: AraC-treated primary cultures are incubated in fresh media for 72 h. […] After 48 h, the cells are analyzed immunocytochemically as described below.
Immunocytochemistry: Primary cells are fixed in 4% (w/v) paraformaldehyde in PBS for 30 min. […] MAP2- and TH-immunoreactive primary neurons are counted in 10 randomly chosen observation fields for each experimental condition using a Nikon TE2000-U inverted fluorescence microscope at a total magnification of 200×. The data are expressed as the percentage of MAP2-positive neurons that are also TH-positive. […]

[2] = system: neuronally differentiated PC-12 cells; assay: Protection from rotenone induced toxicity in neuronally differentiated PC-12 cells; format: cell-based
Procedure: Rotenone is a complex I poison and is widely used in cell culture and animal models of PD. (20, 31, 32) To determine if PIP-1 protects cells from rotenone insult, PC-12 cells are neuronally differentiated (with neuronal growth factor β for 10 days) and then treated with 10 μM rotenone and a range of PIP-1 concentrations. After 72 hours, cell death is assessed using propidium iodide staining as measured by flow cytometry. […] To determine the features on PIP-1 that are important for PARG inhibition and cell protection, three derivatives are constructed that lacked key functionality (see FIG. 19 compounds labeled 3, 4 and 5).
Cell culture conditions: HL-60 and SK-N-SH cells are grown in RPMI 1640 media supplemented with 10% FBS and PC-12 cells are grown in RPMI 1640 media supplemented with 10% HS and 5% FBS. All cell lines are incubated at 37° C. in a 5% CO2, 95% air atmosphere. HL-60 cells are split every two to three days as needed and SK-N-SH cells are split when they reach approximately 90% confluency at a 1:6 ratio. SK-N-SH cells are differentiated by adding media containing 10 μM retinoic acid (in DMSO). Media is replaced every other day and cells are differentiated for a total of 12 days. PC-12 cells are differentiated by adding media containing 25 ng/mL Neuronal Growth Factro β. Media is replaced every other day and cells are differentiated for a total of 10 days. Differentiation is observed by microscopy.
Protection of Rotenone and MPP^+ induced toxicity in PC-12 and SK-N-SH cells: SK-N-SH and PC-12 cells are neuronally differentiated as described above. 10 μM rotenone, 10 μM MPP^+ and various concentrations of PIP-1 or its derivatives are added to the cells and incubated for 72 h. The cells are then washed in PBS and the viability is determined by adding propidium iodide to 1 μg/mL and measuring the fluorescent intensity of each cell by flow cytometry.

SMILES: CN(C)c1cnn(-c2ccccc2)c(=O)c1N [PIP-1, 4-Amino-5-dimethylamino-2-phenyl-2H-pyridazin-3-one]
- Protection of dopaminergic neurons from rotenone induced cell death [1]: considerable protection; also recorded: protects dopaminergic neurons from rotenone induced cell death
- Protection of rotenone-treated neuronally differentiated PC-12 cells (in words) [2]: protect
- EC50 ([2]; Rattus norvegicus, differentiated PC-12 cells, 10 μM rotenone, 72 h, read-out: EC50 (IC50) for protection from rotenone induced toxicity): 5.36 µM

SMILES: Nc1c(Cl)cnn(-c2ccccc2)c1=O [compound 5, 4-Amino-5-chloro-2-phenyl-2H-pyridazin-3-one]
- Protection of dopaminergic neurons from rotenone induced cell death [1]: no protection; also recorded: does not significantly protect
- Protection of rotenone-treated neuronally differentiated PC-12 cells (in words) [2]: inactive
- Protection of rotenone-treated neuronally differentiated PC-12 cells (in words) ([2]; listed as analogue 5): do not protect
